# Assay results: PMC9908614 (Frontiers in Microbiology, 2023)
# Key:
# [1] = biological target: T1, sEH (human recombinant sEH) (Homo sapiens, UniProt P34913); test: fluorescence hydrolysis assay, Michaelis-Menten (Km); assay type: biochemical; details: cited from earlier work
# T1 construct: gene EPHX2
# T1 sequence (P34913 1-555): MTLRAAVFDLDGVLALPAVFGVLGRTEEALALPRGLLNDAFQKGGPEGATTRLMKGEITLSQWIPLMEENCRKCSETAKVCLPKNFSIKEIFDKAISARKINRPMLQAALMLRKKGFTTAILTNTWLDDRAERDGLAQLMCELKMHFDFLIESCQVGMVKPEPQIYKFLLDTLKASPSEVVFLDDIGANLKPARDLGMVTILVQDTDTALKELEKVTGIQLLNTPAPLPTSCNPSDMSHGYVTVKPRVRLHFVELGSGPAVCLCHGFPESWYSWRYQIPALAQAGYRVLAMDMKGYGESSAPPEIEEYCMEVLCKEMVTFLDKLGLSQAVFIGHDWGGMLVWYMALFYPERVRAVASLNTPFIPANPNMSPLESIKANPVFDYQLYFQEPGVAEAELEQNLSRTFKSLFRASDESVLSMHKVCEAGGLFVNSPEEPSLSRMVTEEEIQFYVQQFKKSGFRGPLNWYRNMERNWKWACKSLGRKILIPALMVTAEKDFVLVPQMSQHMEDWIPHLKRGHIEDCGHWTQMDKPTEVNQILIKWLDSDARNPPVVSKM
# [2] = test system: COc1ccc2cc(C(C#N)OC(=O)CC3OC3c3ccccc3)ccc2c1; test: purified protein
# [3] = biological target: T2, EphH (Rv3338) (Mycobacterium tuberculosis, UniProt O53388); assay type: biochemical
# [4] = biological target: T2, EphH (Rv3338); test: biochemical; details: read-out: rEphH
# T2 sequence (O53388 whole entry): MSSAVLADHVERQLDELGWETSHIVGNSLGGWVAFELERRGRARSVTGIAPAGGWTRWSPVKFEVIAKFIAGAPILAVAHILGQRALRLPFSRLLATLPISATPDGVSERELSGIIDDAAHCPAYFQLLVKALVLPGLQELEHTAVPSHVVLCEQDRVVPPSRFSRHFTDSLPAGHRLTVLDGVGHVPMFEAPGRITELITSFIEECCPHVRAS
molecule,measurement,setting,value
"COc1ccc2cc(C(C#N)OC(=O)CC3OC3c3ccccc3)ccc2c1 (stereo not drawn) [PHOME, (3-phenyl-oxiranyl)-acetic acid cyano-(6-methoxynaphthalen-2-yl)-methyl ester]",Km,[1],26.2 µM
EphH (Rv3338) (Mycobacterium tuberculosis H37Rv),Km,[2],21.03 µM
same,Vmax,[2],1.027 µmol/min
same,kcat/Km,[2],870000 M⁻¹ s⁻¹
c1ccc(C2CO2)cc1 (racemic) [styrene oxide],colorimetric Red assay (NaIO4/adrenaline) with purified rEphH,[3],"EphH activity was also determined with another EH substrate, styrene oxide"
"O=C(O)CCCCCCCCCCCNC(=O)NC12CC3CC(CC(C3)C1)C2 [AUDA, 12-(3-adamantane-1-yl-ureido)-dodecanoic acid]",IC50,[4],9.4 ± 0.5 nM
